Assay results from the supplement of paper PMC10307832.

Columns and labels:
Assay in all cases: relative viability (nuclei count vs DMSO), 5 days (fraction); higher = more cells survive
Vandetanib + Tozasertib = compound: COc1cc2/c(=N/c3ccc(Br)cc3F)nc[nH]c2cc1OCC1CCN(C)CC1 [Vandetanib] + Cc1cc(Nc2cc(N3CCN(C)CC3)nc(Sc3ccc(NC(=O)C4CC4)cc3)n2)n[nH]1 [Tozasertib] (partner 0.1 µM)
In short: (§1)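 After 5 days of treatment, lung cancer cells in 1536-well plates were fixed and stained in a single step (final 0.05% Triton X-100, 1% formaldehyde, 1 ug/ml Hoechst) and their nuclei counted on 4× images. Treatment had been applied by pin tool the day after seeding as one drug alone or as a fixed anchor-drug dose with five library-drug doses (not always all listed) in √10 steps. Relative viability is the nuclei count of treated wells divided by that of vehicle wells, and values are medians of duplicate plates.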

CUDC-101 + Phenformin = compound: C#Cc1cccc(Nc2ncnc3cc(OC)c(OCCCCCCC(=O)NO)cc23)c1 [CUDC-101] + N=C(N)NC(=N)NCCc1ccccc1 [Phenformin] (partner 250 µM)
In short: as §1

NVP-TAE684 + Pictilisib = compound: COc1cc(N2CCC(N3CCN(C)CC3)CC2)ccc1Nc1ncc(Cl)c(Nc2ccccc2S(=O)(=O)C(C)C)n1 [NVP-TAE684] + CS(=O)(=O)N1CCN(Cc2cc3nc(-c4cccc5[nH]ncc45)nc(N4CCOCC4)c3s2)CC1 [Pictilisib] (partner 1 µM)
In short: as §1

CUDC-101 + Decitabine = compound: C#Cc1cccc(Nc2ncnc3cc(OC)c(OCCCCCCC(=O)NO)cc23)c1 [CUDC-101] + Nc1ncn([C@H]2C[C@H](O)[C@@H](CO)O2)c(=O)n1 [Decitabine] (partner 2 µM)
In short: as §1

Cell Line	relative viability (Vandetanib + Tozasertib; first compound 0.02 µM)	relative viability (Vandetanib + Tozasertib; first compound 0.06325 µM)	relative viability (Vandetanib + Tozasertib; first compound 0.2 µM)	relative viability (Vandetanib + Tozasertib; first compound 0.6325 µM)	relative viability (Vandetanib + Tozasertib; first compound 2 µM)	relative viability (CUDC-101 + Phenformin; first compound 0.01 µM)	relative viability (CUDC-101 + Phenformin; first compound 0.03162 µM)	relative viability (CUDC-101 + Phenformin; first compound 0.1 µM)	relative viability (CUDC-101 + Phenformin; first compound 0.3162 µM)	relative viability (CUDC-101 + Phenformin; first compound 1 µM)	relative viability (NVP-TAE684 + Pictilisib; first compound 0.6325 µM)	relative viability (NVP-TAE684 + Pictilisib; first compound 2 µM)	relative viability (CUDC-101 + Decitabine; first compound 0.01 µM)	relative viability (CUDC-101 + Decitabine; first compound 0.03162 µM)	relative viability (CUDC-101 + Decitabine; first compound 0.1 µM)	relative viability (CUDC-101 + Decitabine; first compound 0.3162 µM)	relative viability (CUDC-101 + Decitabine; first compound 1 µM)	relative viability (NVP-TAE684 + Pictilisib; first compound 0.2 µM)
NCI-H1993	0.639	0.601	0.481	0.561	0.521	0.491	0.523	0.569	0.535	0.603	0.781	0.832	0.62	0.548	0.602	0.586	0.488	–
NCI-H1437	0.408	0.402	0.134	0.402	0.389	0.313	0.341	0.275	0.275	0.392	0.433	0.297	0.556	0.537	0.553	0.533	0.498	0.369
ABC-1	0.177	0.173	0.189	0.183	0.117	0.256	0.256	0.212	0.247	0.186	0.493	0.298	0.989	0.92	0.992	0.985	1.03	0.546
NCI-H727	0.689	0.498	0.504	0.529	0.488	0.591	0.476	0.297	0.604	0.362	0.388	0.261	1.19	0.906	0.944	0.989	0.695	0.373
PC-3 [JPC-3]	0.851	0.831	0.938	0.776	0.491	0.484	0.486	0.362	0.402	0.351	0.684	0.65	0.773	0.717	0.54	0.723	0.476	0.697
NCI-H1355	0.614	0.519	0.562	0.494	0.516	0.453	0.431	0.453	0.47	0.387	0.323	0.343	0.359	0.313	0.358	0.355	0.313	0.467
HCC-827	0.442	0.419	0.415	0.243	0.135	0.376	0.18	0.161	0.143	0.14	0.84	0.968	0.309	0.248	0.177	0.149	0.155	1.14
NCI-H1944	0.262	0.265	0.235	0.239	0.243	0.218	0.192	0.181	0.193	0.151	0.308	0.3	0.409	0.434	0.431	0.428	0.363	0.334
NCI-H2405	0.754	0.716	0.738	0.685	0.714	0.392	0.37	0.442	0.397	0.352	0.348	0.284	0.853	0.705	0.776	0.762	0.643	0.522
NCI-H650	0.732	0.69	–	0.809	0.723	0.453	0.475	0.465	0.385	0.38	0.69	0.497	0.359	0.366	0.323	0.286	0.264	0.789
HCC-366	0.125	0.112	0.0453	0.174	0.0919	0.604	0.555	0.704	0.667	0.64	0.105	0.113	0.335	0.33	0.339	0.383	0.354	0.0975
NCI-H838	0.264	0.273	0.193	0.253	0.229	0.64	0.564	0.696	0.712	0.404	0.356	0.235	0.45	0.516	0.49	0.484	0.369	0.408
NCI-H520	0.437	0.414	0.482	0.432	0.501	0.55	0.494	0.576	0.581	0.247	0.3	0.228	0.49	0.622	0.478	0.513	0.318	0.337
NCI-H358	0.111	0.106	0.104	0.0913	0.102	0.378	0.346	0.32	0.312	0.193	0.261	0.219	0.209	0.204	0.174	0.206	0.112	0.305
HOP-62	0.42	0.379	0.191	0.384	0.368	0.628	0.656	0.758	0.683	0.545	0.75	0.754	0.288	0.238	0.224	0.22	0.229	0.815
NCI-H2170	0.75	0.733	0.796	0.685	0.764	0.407	0.377	0.459	0.439	0.375	0.248	0.275	0.416	0.514	0.485	0.444	0.391	0.272
NCI-H1651	0.68	0.688	0.14	0.854	0.686	0.34	0.352	0.371	0.415	0.432	0.629	0.402	0.671	0.645	0.643	0.594	0.515	0.366
NCI-H460	0.399	0.432	0.371	0.391	0.457	0.528	0.501	0.554	0.526	0.486	0.362	0.295	0.522	0.459	0.423	0.533	0.433	0.333

Cell Line	relative viability (Vandetanib + Tozasertib; first compound 0.02 µM)	relative viability (Vandetanib + Tozasertib; first compound 0.06325 µM)	relative viability (Vandetanib + Tozasertib; first compound 0.2 µM)	relative viability (Vandetanib + Tozasertib; first compound 0.6325 µM)	relative viability (Vandetanib + Tozasertib; first compound 2 µM)	relative viability (CUDC-101 + Phenformin; first compound 0.01 µM)	relative viability (CUDC-101 + Phenformin; first compound 0.03162 µM)	relative viability (CUDC-101 + Phenformin; first compound 0.1 µM)	relative viability (CUDC-101 + Phenformin; first compound 0.3162 µM)	relative viability (CUDC-101 + Phenformin; first compound 1 µM)	relative viability (NVP-TAE684 + Pictilisib; first compound 0.6325 µM)	relative viability (NVP-TAE684 + Pictilisib; first compound 2 µM)	relative viability (CUDC-101 + Decitabine; first compound 0.01 µM)	relative viability (CUDC-101 + Decitabine; first compound 0.03162 µM)	relative viability (CUDC-101 + Decitabine; first compound 0.1 µM)	relative viability (CUDC-101 + Decitabine; first compound 0.3162 µM)	relative viability (CUDC-101 + Decitabine; first compound 1 µM)	relative viability (NVP-TAE684 + Pictilisib; first compound 0.2 µM)
NCI-H1734	0.24	0.289	0.14	0.216	0.261	0.362	0.419	0.425	0.448	0.29	0.364	0.336	0.514	0.487	0.497	0.471	0.389	0.422
NCI-H1915	0.424	0.422	0.438	0.419	0.412	0.395	0.361	0.364	0.349	0.269	0.932	0.874	0.262	0.267	0.28	0.248	0.23	0.98
NCI-H661	0.345	0.345	0.315	0.364	0.368	0.284	0.291	0.291	0.311	0.246	0.426	0.429	0.544	0.497	0.487	0.571	0.307	0.449
NCI-H1975	0.771	0.714	0.0829	0.685	0.74	0.415	0.401	0.416	0.425	0.378	0.231	0.191	0.398	0.451	0.389	0.391	0.374	0.281
NCI-H2087	0.252	0.266	0.0945	0.278	0.262	0.403	0.465	0.439	0.413	0.316	0.886	0.858	0.245	0.313	0.256	0.251	0.237	0.942
LCLC-97TM1	0.219	0.225	0.346	0.24	0.251	0.426	0.381	0.436	0.471	0.362	0.145	0.148	0.286	0.24	0.227	0.228	0.191	0.112
EPLC-272H	0.25	–	0.285	0.282	0.306	0.279	0.297	0.201	0.136	0.114	–	0.184	0.327	0.363	0.341	0.301	0.309	0.285
NCI-H1755	0.581	0.568	0.648	0.536	0.567	0.587	0.629	0.319	0.645	0.534	0.414	0.408	0.695	0.748	0.83	0.755	0.64	0.5
H3255	0.469	0.727	0.579	0.554	0.345	0.367	0.322	–	0.31	0.166	0.424	0.256	0.643	0.549	–	0.227	0.15	0.454
NCI-H441	0.744	0.668	0.283	0.853	0.768	0.88	0.486	0.764	0.917	0.776	0.459	0.321	0.303	0.305	0.262	0.242	0.236	0.515
NCI-H1793	0.335	0.351	0.195	0.341	0.242	0.372	0.239	0.34	0.442	0.291	0.326	0.519	0.388	0.493	0.467	0.431	0.435	0.426
LK-2	0.18	0.165	0.195	0.182	0.172	0.369	0.727	0.411	0.479	0.15	0.472	0.343	0.262	0.329	0.384	0.2	0.125	0.649
SW 1573	0.153	0.169	0.19	0.174	0.195	0.407	0.356	0.484	0.371	0.304	0.471	0.39	0.552	0.514	0.489	0.593	0.264	0.571
HCC-78	0.502	0.451	0.41	0.548	0.404	0.709	0.705	0.675	0.602	0.246	0.138	0.172	0.738	0.591	0.719	0.624	0.433	0.207
SK-MES-1	0.93	0.84	1.01	1.04	0.847	0.705	0.679	0.705	0.606	0.57	0.393	0.309	0.349	0.466	0.332	0.392	0.261	0.475
NCI-H2023	0.436	0.31	0.217	0.298	0.337	0.406	0.379	0.438	0.481	0.341	0.137	0.109	0.222	0.248	0.188	0.212	0.193	0.244
ChaGo-K-1	0.2	0.239	0.248	0.212	0.215	0.467	0.542	0.508	0.558	0.41	0.424	0.776	0.558	0.47	0.555	0.505	0.492	1.14
NCI-H2126	0.814	0.8	0.795	0.745	0.657	0.556	0.532	0.517	0.52	0.403	0.501	0.428	0.564	0.572	0.597	0.567	0.519	0.491
